Series [1] is described as follows: Analysis of luciferase mRNA lipid particle composition (Production Example 1). The format is physicochemical. The settings on record: for Particle size: lipid particle cationic lipid:DPPC:cholesterol:GM-020=60:10.6:28:1.4 with luciferase mRNA, Zetasizer Nano ZS; for Encapsulation ratio / mRNA Concentration: lipid particle composition with luciferase mRNA, RiboGreen. From the text:
(§1) The particle size of the lipid particle (in the composition) can be measured by using a known means. For example, a Zetasizer Nano ZS (Malvern Instruments Limited), a particle size analyzer based on an NIBS (non-invasive backscatter) technique, can be used to calculate the particle size as a z-average particle size through cumulant analysis of the autocorrelation function. The particle size (average particle size) of the lipid particle (in the composition) is preferably 10 to 200 nm.
(§2) The concentration and encapsulation ratio of a nucleic acid (e.g., an siRNA, an mRNA) as an active ingredient in the composition of the present invention can be measured by using a known means. For example, after the nucleic acid is fluorescence-labeled with Quant-iT™ RiboGreen® (Invitrogen), the concentration and the encapsulation ratio can be determined by measuring the fluorescence intensity. The concentration of the nucleic acid in the composition can be calculated by using a standard curve prepared from aqueous solutions of the nucleic acid with known concentrations, and the encapsulation ratio can be calculated on the basis of difference in fluorescence intensity depending on the presence or absence of addition of Triton-X100 (a surfactant to disintegrate the lipid particle). The concentration of the nucleic acid in the composition refers to the total concentration of molecules of the nucleic acid encapsulated in the lipid particle and molecules of the nucleic acid not encapsulated in the lipid particle, and the encapsulation ratio refers to the fraction of molecules of the nucleic acid encapsulated in the lipid particle to all the molecules of the nucleic acid in the composition.
(§3) A lipid mixture (cationic lipid produced in Examples:DPPC:cholesterol:GM-020=60:10.6:28:1.4, in mole ratio) was dissolved in 90% EtOH/10% RNase-free water to afford a 8.5 mg/mL lipid solution. Luciferase mRNA (TriLink Bio Technologies) was dissolved in 10 mM 2-morpholinoethanesulfonate (MES) buffer at pH 4.0 to afford a 0.22 mg/mL nucleic acid solution. The lipid solution and nucleic acid solution obtained were mixed by using the apparatus NanoAssemblr (Precision Nanosystems) at room temperature with a flow rate ratio of 3 mL/min:6 mL/min to afford a dispersion containing a lipid particle encapsulating the nucleic acid. By using a Slyde-A-Lyzer (molecular weight cutoff: 20k, Thermo Fisher Scientific), the dispersion obtained was dialyzed with water at room temperature for 1 hour and with PBS at 4° C. for 48 hours. Subsequently, filtration was performed with a 0.2 µm syringe filter (IWAKI CO., LTD.) to prepare a composition for nucleic acid introduction, and thereafter the composition was stored at 4° C. The particle size of the lipid particle was measured by using a Zetasizer Nano ZS (Malvern Instruments Limited). The mRNA concentration and encapsulation ratio of the lipid particle were measured by using a Quant-iT™ RiboGreen® (Invitrogen).

Series [2] relates to HCT116 cells. Put plainly: Test of mRNA transfection into cultured cells (luciferase expression). Format: cell-based, human. Conditions: HCT116, 10 ng luciferase mRNA per well, 24 hours after addition. On the procedure: as §3
The human colorectal cancer-derived cell line HCT116 cells were cultured in a 96-well plate at a cell density of 6000 cells/well, and 24 hours thereafter 10 μL of the composition containing 10 ng of luciferase mRNA for nucleic acid introduction (a solution obtained by diluting the product of Production Example 1 to an mRNA concentration of 10 ng/10 μL) was added to the medium. The level of luciferase expressed in HCT116 24 hours after the addition of mRNA was measured by using a Picagene LT2.0 kit (TOYOBO CO., LTD.).

The nature of series [3]: Analysis of Col1a1/FVII siRNA lipid particle composition (Production Example 2). The format is physicochemical. Conditions: for Particle size: lipid particle cationic lipid:DPPC:cholesterol:GM-020=60:10.6:28:1.4 with Col1a1 and FVII siRNA, Zetasizer Nano ZS; for Encapsulation ratio / siRNA Concentration: lipid particle composition with Col1a1 and FVII siRNA, RiboGreen.
Excerpt: as §1, §2
A lipid mixture (cationic lipid produced in Examples:DPPC:cholesterol:GM-020=60:10.6:28:1.4, in mole ratio) was dissolved in 90% EtOH/10% RNase-free water to afford an approximately 7 mg/mL lipid solution. Equal amounts of an siRNA for Col1a1 and an siRNA for Factor VII (FVII) were mixed together, and the mixture was dissolved in 25 mM acetate buffer at pH 4.0 to afford a 0.2 mg/mL nucleic acid solution. Sequence information on the siRNAs are shown in a table below. The lipid solution and nucleic acid solution obtained were mixed by using the apparatus NanoAssemblr (Precision Nanosystems) at room temperature with a flow rate ratio of 3 mL/min:9 mL/min to afford a dispersion containing a lipid particle including the nucleic acids. By using a Slyde-A-Lyzer (molecular weight cutoff: 20k, Thermo Fisher Scientific), the dispersion obtained was dialyzed with water at room temperature for 1 hour and with PBS at 4° C. for 48 hours. Subsequently, filtration was performed with a 0.2 µm syringe filter (IWAKI CO., LTD.) to prepare a composition for nucleic acid introduction, and thereafter the composition was stored at 4° C. The particle size of the lipid particle was measured by using a Zetasizer Nano ZS (Malvern Instruments Limited). The mRNA concentration and encapsulation ratio of the lipid particle were measured by using a Quant-iT™ RiboGreen® (Invitrogen).

SMILES strings stand for the structures.

Take `CCCC/C=C\CCCCCCCC(=O)OCC(COC(=O)CCCCCCC/C=C\CCCC)(COC(=O)CCCCCCC/C=C\CCCC)COC(=O)CCCN(C)C` [Example 1, 3-((4-(Dimethylamino)butanoyl)oxy)-2,2-bis(((9Z)-tetradec-9-enoyloxy)methyl)propyl (9Z)-tetradec-9-enoate]: in series [1], the Particle size is reported as 71 nm, the Encapsulation ratio turned out to be 96% and the “mRNA Concentration” value was 136 µg/mL. Further, the “Mean value of luminescence for 3 wells” value in series [2] (Table 3 (PBS control 560)) worked out at 227720 cps.

For the compound `CCCC/C=C\CCCCCCCC(=O)OCC(COC(=O)CCCCCCC/C=C\CCCC)(COC(=O)CCCCCCC/C=C\CCCC)COC(=O)CCCCN(C)C` [Example 2, 3-((5-(dimethylamino)pentanoyl)oxy)-2,2-bis(((9Z)-tetradec-9-enoyloxy)methyl)propyl (9Z)-tetradec-9-enoate], in series [3], the Particle size stood at 104 nm, the Encapsulation ratio turned out to be 98% and the “siRNA Concentration” value was determined as 251 µg/mL. In series [1], the Particle size is recorded as 90 nm, the Encapsulation ratio came to 96% and the “mRNA Concentration” value came to 73 µg/mL. Besides, the “Mean value of luminescence for 3 wells” value in series [2] (Table 3 (PBS control 560)) is 570027 cps.

For `CCCC/C=C\CCCCCCCC(=O)OCC(COC(=O)CCCCCCC/C=C\CCCC)(COC(=O)CCCCCCC/C=C\CCCC)COC(=O)CCCCCN(C)C` [Example 3, 3-((6-(dimethylamino)hexanoyl)oxy)-2,2-bis(((9Z)-tetradec-9-enoyloxy)methyl)propyl (9Z)-tetradec-9-enoate], in series [3], the Particle size was 117 nm, the Encapsulation ratio is 95% and the “siRNA Concentration” value was found to be 196 µg/mL. In series [1], the Particle size is listed as 93 nm, the Encapsulation ratio worked out at 96% and the “mRNA Concentration” value turned out to be 87 µg/mL. Also, the “Mean value of luminescence for 3 wells” value in series [2] (Table 3 (PBS control 560)) worked out at 412187 cps.

Take `CCCC/C=C\CCCCCCCC(=O)OCC(COC(=O)CCCCCCC/C=C\CCCC)(COC(=O)CCCCCCC/C=C\CCCCCC)COC(=O)CCCN(C)C` [Example 4, 3-((4-(Dimethylamino)butanoyl)oxy)-2,2-bis(((9Z)-tetradec-9-enoyloxy)methyl)propyl (9Z)-hexadec-9-enoate]: in series [3], the Particle size is listed as 90 nm, the Encapsulation ratio came out at 89% and the “siRNA Concentration” value worked out at 355 µg/mL. In series [1], the Particle size is on record as 76 nm, the Encapsulation ratio is recorded as 97% and the “mRNA Concentration” value amounted to 113 µg/mL. Also, the “Mean value of luminescence for 3 wells” value in series [2] (Table 3 (PBS control 560)) amounted to 407547 cps.

With `CCCC/C=C\CCCCCCCC(=O)OCC(COC(=O)CCCCCCC/C=C\CCCC)(COC(=O)CCCCCCC/C=C\CCCCCC)COC(=O)CCCCN(C)C` [Example 5, 3-((5-(dimethylamino)pentanoyl)oxy)-2,2-bis(((9Z)-tetradec-9-enoyloxy)methyl)propyl (9Z)-hexadec-9-enoate], in series [3], the Particle size amounted to 103 nm, the Encapsulation ratio was determined as 94% and the “siRNA Concentration” value is 367 µg/mL. Moreover, in series [1], the Particle size turned out to be 91 nm, the Encapsulation ratio worked out at 98% and the “mRNA Concentration” value amounted to 96 µg/mL. Also, the “Mean value of luminescence for 3 wells” value in series [2] (Table 3 (PBS control 560)) was 545507 cps.

With `CCCC/C=C\CCCCCCCC(=O)OCC(COC(=O)CCCCCCC/C=C\CCCC)(COC(=O)CCCCCCC/C=C\CCCCCCCC)COC(=O)CCCCN(C)C` [Example 6, 3-((5-(dimethylamino)pentanoyl)oxy)-2,2-bis(((9Z)-tetradec-9-enoyloxy)methyl)propyl (9Z)-octadec-9-enoate], in series [3], the Particle size turned out to be 87 nm, the Encapsulation ratio is 98% and the “siRNA Concentration” value was determined as 333 µg/mL.

Consider `CCCC/C=C\CCCCCCCC(=O)OCC(COC(=O)CCCCCCC/C=C\C/C=C\CCCCC)(COC(=O)CCCCCCC/C=C\CCCC)COC(=O)CCCCN(C)C` [Example 7, 3-((5-(dimethylamino)pentanoyl)oxy)-2,2-bis(((9Z)-tetradec-9-enoyloxy)methyl)propyl (9Z,12Z)-octadec-9,12-dienoate], for which, in series [3], the Particle size is 102 nm, the Encapsulation ratio amounted to 96% and the “siRNA Concentration” value stood at 320 µg/mL.

As for `CCCC/C=C\CCCCCCCC(=O)OCC(COC(=O)CCCCCCC)(COC(=O)CCCCCCC/C=C\CCCC)COC(=O)CCN(C)C` [Example 8, 2-(((N,N-dimethyl-β-alanyl)oxy]methyl}-2-[(octanoyloxy)methyl)propane-1,3-diyl (9Z,9′Z)bis-tetradec-9-enoate], in series [1], the Particle size is given as 67 nm, the Encapsulation ratio is 94% and the “mRNA Concentration” value is 84 µg/mL. Besides, the “Mean value of luminescence for 3 wells” value in series [2] (Table 3 (PBS control 560)) was determined as 3853 cps.

With `CCCC/C=C\CCCCCCCC(=O)OCC(COC(=O)CCCCCCC)(COC(=O)CCCCCCC/C=C\CCCC)COC(=O)CCCN(C)C` [Example 9, 2-(((4-(dimethylamino)butanoyl)oxy)methyl)-2-((octanoyloxy)methyl)propane-1,3-diyl (9Z,9′Z)bis-tetradec-9-enoate], in series [1], the Particle size is 108 nm, the Encapsulation ratio was 62% and the “mRNA Concentration” value was found to be 129 µg/mL. Besides, the “Mean value of luminescence for 3 wells” value in series [2] (Table 4 (PBS control 627)) worked out at 549893 cps.

For the compound `CCCC/C=C\CCCCCCCC(=O)OCC(COC(=O)CCCCCCC/C=C\CCCC)(COC(=O)CCCCCCCCC)COC(=O)CCCN(C)C` [Example 10, 2-((decanoyloxy)methyl)-2-(((4-(dimethylamino)butanoyl)oxy)methyl)propane-1,3-diyl (9Z,9′Z)bis-tetradec-9-enoate], in series [3], the Particle size worked out at 88 nm, the Encapsulation ratio amounted to 90% and the “siRNA Concentration” value is 307 µg/mL. In series [1], the Particle size is on record as 92 nm, the Encapsulation ratio is recorded as 84% and the “mRNA Concentration” value stood at 86 µg/mL. In series [2] (Table 3 (PBS control 560)), the “Mean value of luminescence for 3 wells” value is 1203467 cps.

Regarding `CCCC/C=C\CCCCCCCC(=O)OCC(COC(=O)CCCCCCC/C=C\CCCC)(COC(=O)CCCCCCCCCCC)COC(=O)CCCN(C)C` [Example 11, 2-(((4-(Dimethylamino)butanoyl)oxy)methyl)-2-((dodecanoyloxy)methyl)propane-1,3-diyl (9Z,9′Z)bis-tetradec-9-enoate], in series [3], the Particle size is 85 nm, the Encapsulation ratio is 91% and the “siRNA Concentration” value was 402 µg/mL. Besides, in series [1], the Particle size is recorded as 83 nm, the Encapsulation ratio is listed as 92% and the “mRNA Concentration” value is 85 µg/mL. Also, the “Mean value of luminescence for 3 wells” value in series [2] (Table 3 (PBS control 560)) came to 953520 cps.
